Laboratory results: doi:10.1101/2024.02.28.582612v1 (biorxiv, 2024)

The compounds below were run against T1, Mtb cytochrome bd (Mycobacterium tuberculosis, UniProt L7N662+O06139). Details: read-out: % remaining OCR at 10 μM.
T1 sequence (L7N662 1-485): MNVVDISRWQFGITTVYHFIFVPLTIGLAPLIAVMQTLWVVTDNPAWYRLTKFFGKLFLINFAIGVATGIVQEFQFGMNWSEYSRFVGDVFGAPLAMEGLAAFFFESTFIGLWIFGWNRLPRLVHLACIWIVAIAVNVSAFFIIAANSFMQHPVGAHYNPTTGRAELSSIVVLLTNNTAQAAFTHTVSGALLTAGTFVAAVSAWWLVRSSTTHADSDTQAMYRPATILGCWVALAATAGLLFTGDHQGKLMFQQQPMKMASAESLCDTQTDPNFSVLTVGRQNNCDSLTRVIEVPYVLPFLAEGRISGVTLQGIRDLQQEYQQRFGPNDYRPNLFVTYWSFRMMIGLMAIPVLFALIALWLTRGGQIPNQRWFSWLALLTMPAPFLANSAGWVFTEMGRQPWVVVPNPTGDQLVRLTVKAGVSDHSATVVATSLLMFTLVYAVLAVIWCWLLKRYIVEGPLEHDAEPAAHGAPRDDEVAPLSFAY
T1 sequence (O06139 1-346): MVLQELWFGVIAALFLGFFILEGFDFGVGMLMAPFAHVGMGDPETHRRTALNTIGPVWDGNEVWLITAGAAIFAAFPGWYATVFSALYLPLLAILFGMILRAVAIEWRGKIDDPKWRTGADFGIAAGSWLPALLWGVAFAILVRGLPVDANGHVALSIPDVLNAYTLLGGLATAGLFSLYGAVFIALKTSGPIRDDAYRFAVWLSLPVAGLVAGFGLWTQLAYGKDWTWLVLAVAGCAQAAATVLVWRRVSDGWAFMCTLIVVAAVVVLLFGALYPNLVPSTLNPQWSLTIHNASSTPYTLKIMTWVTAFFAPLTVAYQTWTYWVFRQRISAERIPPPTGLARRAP
Format: biochemical
`CC(C)(c1cc(Br)c(OCC(O)CN2CCN(Cc3ccccc3)CC2)c(Br)c1)c1cc(Br)c(OCC(O)CN2CCN(Cc3ccccc3)CC2)c(Br)c1` (stereo not drawn) [F0777-1198] showed a remaining activity at 10 µM of 51%.
`C=CCSc1ncc(-c2ccccc2)n1-c1ccc(C)cc1` [F2964-1180] gave a remaining activity at 10 µM of 50.6%.
With `CCOc1ccc(-c2nc(CSc3nc4ccccc4c(=O)n3CCCN3CCCC3=O)c(C)o2)cc1` [F3382-2259] the remaining activity at 10 µM was 30.4%.
